Experiments:
[1] = General observations for signs of illness; format: in vivo, mice (C57BL/6J); settings: mice, 0.025-0.1 mg/g daily oral gavage two weeks
Description: (§1) This experiment was conducted under Flinders animal welfare approval number 751-10. A total of 38 wild-type (C57BL/6J) male mice aged 10 weeks were obtained from the Animal Resource Centre, Perth, Western Australia. Mice were divided randomly into 4 groups (ten mice in each treatment group and 8 mice in the sunflower oil only control group) and housed in 8 cages (four to five mice per cage). The mice were given water and food (rodent chow) ad libitum and maintained at the temperature of 22 ± 2 °C and humidity of 80% ± 10% with a 12 h light/dark cycle. Mice were weighed every five days and on the day of kill, and monitored daily for signs of illness, such as weight and hair loss, diarrhea, constipation, rectal bleeding, labored breathing, lethargy, eye and nose discharge.

[2] = parameters: method as in PMID 20150770; settings: low pH, simulated digestive fluid; cited from earlier work
HT29 cells = experiment: LDH release (CytoTox-ONE membrane integrity, necrosis); format: cell-based, human; settings: any concentration, in comparison with DMSO control, 12 h
Description: All media and chemicals were purchased from Sigma Aldrich (Castle Hill, NSW, Australia) unless otherwise stated. HT29 human colorectal cancer cell line (passage no. 36-42) were cultured (37 °C and 5% CO2) in Dulbecco’s Modified Eagle’s Medium (DMEM) supplemented with 4500 mg/L L-glutamine, 10% FBS, 100 U/mL Penicillin/Streptomycin and 1% Non-essential Amino Acid (100×), until the cells reached 70% confluence. The cells were harvested from flasks by trypsinization (1× Trypsin-EDTA) and were seeded (20,000 cells/well) into clear 96-well plates (Costar®, Mt Martha, VIC, Australia) for measurement of cell viability and white (opaque) 96-well plates (Interpath, Heidelberg West, VIC, Australia) for determination of apoptosis and necrosis. HT29 cells were incubated for 48 h, then the media was removed and the cells were washed with PBS. To treat the cells, synthetic 6-bromoisatin was dissolved in 100% dimethylsulphoxide (DMSO) then diluted in media and added to the cells at a range of concentrations from 0.1 to 0.01 mg/mL, in triplicate (final DMSO concentration of 1%). 1% DMSO controls were also included on each plate. Staurosporine (5 µM) for apoptosis and lysis solution (5 μL/well, Promega, Alexandria, NSW, Australia) for necrosis were added to the white plates in triplicate, as positive controls. All cells were treated for 12 h. […]

Blood hematology = format: in vivo, mice (C57BL/6J)
Description: (§2) To detect the early stage prevention of colon cancer, an established AARGC rodent model with injection of the carcinogen AOM was used. Synthetic 6-bromoisatin at 3 different dosages (0.025, 0.05 and 0.1 mg/g body weight) was administered to mice by daily oral gavage in 100 µL sunflower oil, containing 0.02% Vitamin E, for two weeks. The control group was gavaged with sunflower oil (containing 0.02% Vitamin E) only. After two weeks, all mice were injected with a single intraperitoneal (i.p.) injection of AOM at a dosage of 10 mg/kg bodyweight and euthanized 6 h later by cervical dislocation under anesthesia. […] The distal colon of each mouse was excised and fixed in 10% buffered formalin for 24 h and then embedded in paraffin for histological and immunohistological examination.
Blood samples (0.5–1 mL) were obtained from the mice under anesthesia by cardiac puncture at time of kill and transferred to Gribbles Veterinary Pathology laboratory, Adelaide within heparinized vacutainer tubes then centrifuged to separate into the cell layer for hematology analysis (Abbott Cell Dyn 3700 analyzer, North Ryde, NSW, Australia) and plasma for biochemistry analysis (Siemens Advia 1800 chemistry analyzer, Erlangen, Germany). The plasma levels of the liver enzymes AST, ALT and ALP were assessed as indicators of hepatotoxicity.

[3] = tested on: caspase 3/7 activity in HT29 cells; experiment: Caspase-Glo 3/7 assay; format: cell-based, human; settings: 12 h
Description: All media and chemicals were purchased from Sigma Aldrich (Castle Hill, NSW, Australia) unless otherwise stated. HT29 human colorectal cancer cell line (passage no. 36-42) were cultured (37 °C and 5% CO2) in Dulbecco’s Modified Eagle’s Medium (DMEM) supplemented with 4500 mg/L L-glutamine, 10% FBS, 100 U/mL Penicillin/Streptomycin and 1% Non-essential Amino Acid (100×), until the cells reached 70% confluence. The cells were harvested from flasks by trypsinization (1× Trypsin-EDTA) and were seeded (20,000 cells/well) into clear 96-well plates (Costar®, Mt Martha, VIC, Australia) for measurement of cell viability and white (opaque) 96-well plates (Interpath, Heidelberg West, VIC, Australia) for determination of apoptosis and necrosis. HT29 cells were incubated for 48 h, then the media was removed and the cells were washed with PBS. To treat the cells, synthetic 6-bromoisatin was dissolved in 100% dimethylsulphoxide (DMSO) then diluted in media and added to the cells at a range of concentrations from 0.1 to 0.01 mg/mL, in triplicate (final DMSO concentration of 1%). 1% DMSO controls were also included on each plate. Staurosporine (5 µM) for apoptosis and lysis solution (5 μL/well, Promega, Alexandria, NSW, Australia) for necrosis were added to the white plates in triplicate, as positive controls. All cells were treated for 12 h. Morphological changes in the cells were observed on an Olympus CK2 inverted optical microscope (×400 magnification) 12 h after treatment. To measure cell viability, the MTT assay was applied, which measures the reduction of MTT tetrazolium salt to formazan, as previously described. To measure necrosis and apoptosis, CytoTox-ONE Homogeneous Membrane Integrity Assay reagent (Promega) and Caspase-Glo 3/7® assay (Promega) were applied respectively, according to our previous study. These assays were all repeated in triplicate on three separate occasions (n = 3).

[4] = Body and liver weight of treated mice; format: in vivo, mice (C57BL/6J); settings: mean ± S.E.; for Liver weight / Liver/Body (%): day of kill; for Total weight Gain / Body weight (Day1) / Body weight (Day5) / Body weight (Day10) / Body weight (Day14): mice
Description: as §1, §2

[5] = 0.025 mg/g, n = 6, 6 h after AOM 10 mg/kg
[6] = 0.05 mg/g, n = 6, 6 h after AOM 10 mg/kg
[7] = 0.1 mg/g, n = 8, 6 h after AOM 10 mg/kg
[8] = 0.025 mg/g daily oral gavage 14 days
[9] = 0.05 mg/g daily oral gavage 14 days
[10] = 0.1 mg/g daily oral gavage 14 days

Structure (SMILES): O=C1Nc2cc(Br)ccc2C1=O [6-bromoisatin, 6-Bromoindole-2,3-dione]
- diarrhea / stool consistency [1]: no diarrhea or change in stool consistency
- signs of illness [1]: did not show any signs of illness
- stability [2]: stable at low pH
- level of lactate dehydrogenase (LDH) (HT29 cells): No increase
- Hct (Hematocrit) (Blood hematology; [5]): 0.4 ± 0.01 L/L
- Hemoglobin (Blood hematology; [5]): 139.7 ± 5.1 g/L
- Lymphocytes (Blood hematology; [5]): 3.3 ± 1.1 ×10^9/L
- MCH (Mean Corpuscular Hemoglobin) (Blood hematology; [5]): 15.0 ± 0.0 pg
- MCHC (Mean Corpuscular Hemoglobin Concentration) (Blood hematology; [5]): 322.7 ± 1.5 g/L
- MCV (Mean Corpuscular Volume) (Blood hematology; [5]): 46.5 ± 0.8 fL
- Monocytes (Blood hematology; [5]): 0.2 ± 0.3 ×10^9/L
- Neutrophils (Blood hematology; [5]): 1.6 ± 0.8 ×10^9/L
- Red cell count (Blood hematology; [5]): 9.3 ± 0.4 ×10^12/L
- White cell count (Blood hematology; [5]): 5.2 ± 1.8 ×10^9/L
- Hct (Hematocrit) (Blood hematology; [6]): 0.4 ± 0.01 L/L
- Hemoglobin (Blood hematology; [6]): 135.0 ± 3.5 g/L
- Lymphocytes (Blood hematology; [6]): 3.4 ± 0.8 ×10^9/L
- MCH (Mean Corpuscular Hemoglobin) (Blood hematology; [6]): 15.0 ± 0.0 pg
- MCHC (Mean Corpuscular Hemoglobin Concentration) (Blood hematology; [6]): 319.0 ± 2.8 g/L
- MCV (Mean Corpuscular Volume) (Blood hematology; [6]): 46.7 ± 1.2 fL
- Monocytes (Blood hematology; [6]): 0.2 ± 0.1 ×10^9/L
- Neutrophils (Blood hematology; [6]): 2.2 ± 1.3 ×10^9/L
- Red cell count (Blood hematology; [6]): 9.1 ± 0.4 ×10^12/L
- White cell count (Blood hematology; [6]): 5.8 ± 1.5 ×10^9/L
- Hct (Hematocrit) (Blood hematology; [7]): 0.4 ± 0.02 L/L
- Hemoglobin (Blood hematology; [7]): 138.4 ± 5.7 g/L
- Lymphocytes (Blood hematology; [7]): 2.3 ± 0.9 ×10^9/L
- MCH (Mean Corpuscular Hemoglobin) (Blood hematology; [7]): 15.0 ± 0.0 pg
- MCHC (Mean Corpuscular Hemoglobin Concentration) (Blood hematology; [7]): 319.8 ± 3.0 g/L
- MCV (Mean Corpuscular Volume) (Blood hematology; [7]): 46.4 ± 0.7 fL
- Monocytes (Blood hematology; [7]): 0.1 ± 0.1 ×10^9/L
- Neutrophils (Blood hematology; [7]): 0.8 ± 0.7 ×10^9/L
- Red cell count (Blood hematology; [7]): 9.4 ± 0.5 ×10^12/L
- White cell count (Blood hematology; [7]): 3.2 ± 1.1 ×10^9/L
- caspase 3/7 activity ([3]; 446 μM = 0.1 mg/mL, compared to DMSO control): minor but significant reduction
- caspase 3/7 activity ([3]; concentrations <0.1 mg/mL): did not increase caspase 3/7 activity
- Liver weight [4, 8]: 1.0 ± 0.1 g
- Liver/Body (%) [4, 8]: 4.4 ± 0.6%
- Total weight Gain [4, 8]: 1.4 ± 0.8 g
- Body weight (Day1) ([4]; 0.025 mg/g daily oral gavage): 22.2 ± 1.3 g
- Body weight (Day5) ([4]; 0.025 mg/g daily oral gavage): 22.7 ± 1.3 g
- Body weight (Day10) ([4]; 0.025 mg/g daily oral gavage): 23.0 ± 1.3 g
- Body weight (Day14) ([4]; 0.025 mg/g daily oral gavage): 23.6 ± 1.4 g
- Liver weight [4, 9]: 1.2 ± 0.1 g
- Liver/Body (%) [4, 9]: 5.2 ± 0.6%
- Total weight Gain [4, 9]: 1.4 ± 1.0 g
- Body weight (Day1) ([4]; 0.05 mg/g daily oral gavage): 22.6 ± 1.2 g
- Body weight (Day5) ([4]; 0.05 mg/g daily oral gavage): 23.4 ± 1.2 g
- Body weight (Day10) ([4]; 0.05 mg/g daily oral gavage): 23.4 ± 1.5 g
- Body weight (Day14) ([4]; 0.05 mg/g daily oral gavage): 24.1 ± 1.6 g
- Liver weight [4, 10]: 1.3 ± 0.1 g
- Liver/Body (%) [4, 10]: 5.3 ± 0.4%
- Total weight Gain [4, 10]: 1.4 ± 0.8 g
- Body weight (Day1) ([4]; 0.1 mg/g daily oral gavage): 22.3 ± 1.3 g
- Body weight (Day5) ([4]; 0.1 mg/g daily oral gavage): 22.6 ± 1.3 g
- Body weight (Day10) ([4]; 0.1 mg/g daily oral gavage): 23.3 ± 1.3 g
- Body weight (Day14) ([4]; 0.1 mg/g daily oral gavage): 23.8 ± 1.6 g
